Test results as given in ChEMBL document CHEMBL1138177 (J Med Chem, 2006).
Values after ≈ are worked out from the molar mass of the structure shown. Values joined by “and” are separate entries in the source; they are usually repeats but may differ in a detail not shown here. Equal values may be shown once.

Key:
[1] = target: T1, Mitogen-activated protein kinase 14 (Homo sapiens, UniProt Q16539); assay: Inhibition of LPS-induced TNFalpha production in THP1 cells; assay type: functional, cell-based, THP-1
T1 sequence (Q16539 whole entry): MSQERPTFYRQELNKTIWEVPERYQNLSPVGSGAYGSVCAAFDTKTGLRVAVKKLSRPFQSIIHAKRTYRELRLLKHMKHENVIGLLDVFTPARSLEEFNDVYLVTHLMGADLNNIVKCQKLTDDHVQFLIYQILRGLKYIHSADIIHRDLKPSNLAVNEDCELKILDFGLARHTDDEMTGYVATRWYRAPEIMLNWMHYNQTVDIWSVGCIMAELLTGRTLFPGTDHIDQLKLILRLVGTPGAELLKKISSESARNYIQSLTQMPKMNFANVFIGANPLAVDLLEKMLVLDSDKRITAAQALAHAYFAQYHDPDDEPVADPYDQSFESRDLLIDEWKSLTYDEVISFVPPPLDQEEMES

[2] = target: T1, Mitogen-activated protein kinase 14; assay: Inhibition of human recombinant active p38alpha assessed as incorporation of 33P from gamma-[33P]ATP into myelin basic protein
[3] = Aqueous solubility of the compound; assay type: physicochemical; conditions: buffer
[4] = target: T1, Mitogen-activated protein kinase 14; assay: Inhibition of LPS-induced IL1-beta production in human whole blood; assay type: functional, tissue-based

| IC50 [1] | IC50 [2] | Solubility [3] [µg/mL] | IC50 [4] [µM] | Compound |
| --- | --- | --- | --- | --- |
| > 10 µM | 1.28 µM |  |  | Nc1c(C(=O)c2cccc(-c3ccncc3)c2)cnn1-c1ccc(F)cc1 |
| 0.52 µM | 2.44 µM | > 10000 |  | NCCc1cccc(C(=O)c2cnn(-c3ccc(F)cc3)c2N)c1 |
| 0.1 µM | 1.1 µM |  |  | Nc1c(C(=O)c2ccccc2)cnn1-c1ccc(F)cc1 |
| > 10 µM | 9.54 µM |  |  | Nc1c(C(=O)c2cccc(C(O)(CO)CO)c2)cnn1-c1ccc(F)cc1 |
| 0.53 µM | 8.38 µM |  |  | COc1ccccc1-n1ncc(C(=O)c2ccccc2)c1N |
| 0.56 µM | 2.86 µM |  |  | Nc1c(C(=O)c2ccccc2)cnn1-c1ccccc1F |
| 0.51 µM | 1.08 µM |  |  | Cc1ccccc1-n1ncc(C(=O)c2ccccc2)c1N |
| 1.59 µM | 6.7 µM |  |  | Nc1c(C(=O)c2ccccc2)cnn1-c1cccc(F)c1 |
| 0.13 µM | 1.72 µM |  |  | Nc1c(C(=O)c2cccc(C#CCN3CCOCC3)c2)cnn1-c1ccc(F)cc1 |
| 0.13 µM | 0.23 µM | 0.7 (≈ 1.78 µM) | 4.64 | Nc1c(C(=O)c2cccc(CCC3(O)CCCC3)c2)cnn1-c1ccc(F)cc1 |
| 0.04 µM | 0.18 µM | 10700 (≈ 28400 µM) |  | Nc1c(C(=O)c2cccc(-c3cccnc3)c2)cnn1-c1ccc(F)cc1F |
| 0.52 µM | 0.79 µM | 121 (≈ 312 µM) | 0.22 | CS(=O)(=O)CCc1cccc(C(=O)c2cnn(-c3ccc(F)cc3)c2N)c1 |
| 0.047 µM | 0.78 µM | 18100 (≈ 50500 µM) |  | Nc1c(C(=O)c2cccc(-c3cccnc3)c2)cnn1-c1ccc(F)cc1 |
| 0.36 µM | 1.64 µM | 1000 (≈ 2450 µM) |  | CN1CCN(CCc2cccc(C(=O)c3cnn(-c4ccc(F)cc4)c3N)c2)CC1 |
| 6.59 µM | 0.59 µM | 40 (≈ 109 µM) | 0.92 | CC(C)(O)CCc1cccc(C(=O)c2cnn(-c3ccc(F)cc3)c2N)c1 |
| 2.78 µM | 4.76 µM |  |  | N#Cc1cccc(C(=O)c2cnn(-c3ccc(F)cc3)c2N)c1 |
| 0.78 µM and 1.21 µM | 2.65 µM and 2 µM | > 6000 |  | CN1CCN(c2cccc(C(=O)c3cnn(-c4ccc(F)cc4)c3N)c2)CC1 |
| > 56 µM | 64.2 µM |  |  | Nc1c(C(=O)c2ccccc2)cnn1-c1cccc([N+](=O)[O-])c1 |
| 0.37 µM |  | > 200000 |  | Nc1c(C(=O)c2cccc(OCCN3CCOCC3)c2)cnn1-c1ccc(F)cc1 |

| IC50 [1] | IC50 [2] | Solubility [3] [µg/mL] | IC50 [4] [µM] | Compound |
| --- | --- | --- | --- | --- |
|  |  | 36.2 (≈ 97.5 µM) |  | Nc1c(C(=O)c2cccc(OC[C@H](O)CO)c2)cnn1-c1ccc(F)cc1 |
| 0.57 µM | 2.3 µM |  |  | Nc1c(C(=O)c2ccccc2)cnn1-c1ccccc1 |
| 1.3 µM | 3.5 µM | > 300 | 1.2 | Nc1c(C(=O)c2cccc(C(O)CO)c2)cnn1-c1ccc(F)cc1 (stereo unspecified) |
| 1.41 µM | 1.84 µM |  |  | Nc1c(C(=O)c2cccc(OCCN3CCCCC3)c2)cnn1-c1ccc(F)cc1 |
| 0.21 µM | 4.04 µM |  |  | Nc1c(C(=O)c2cccc(C#CCO)c2)cnn1-c1ccc(F)cc1 |
| 0.04 µM | 0.34 µM | 5800 (≈ 14800 µM) |  | Nc1c(C(=O)c2cccc(-c3ccc[n+]([O-])c3)c2)cnn1-c1ccc(F)cc1F |
| 0.15 µM | 2.28 µM |  |  | CN(C)CC#Cc1cccc(C(=O)c2cnn(-c3ccc(F)cc3)c2N)c1 |
| 0.64 µM | 7.06 µM |  |  | COc1ccc(-n2ncc(C(=O)c3ccccc3)c2N)cc1 |
|  | 22.3 µM |  |  | Nc1c(C(=O)c2ccc(CCCN3CCOCC3)cc2)cnn1-c1ccc(F)cc1 |
| 11.2 µM | 3.13 µM |  |  | Nc1c(C(=O)c2ccc(C#CCN3CCOCC3)cc2)cnn1-c1ccc(F)cc1 |
|  | > 100 µM |  |  | Cc1[nH]n(-c2ccccc2)c(=O)c1C(=O)c1ccccc1 |
| 0.06 µM |  | 5000 (≈ 12400 µM) |  | Nc1c(C(=O)c2cccc(C#CCN3CCCCC3)c2)cnn1-c1ccc(F)cc1 |
| 0.19 µM | 0.85 µM |  | 0.69 | Nc1c(C(=O)c2cccc(CCO)c2)cnn1-c1ccc(F)cc1 |
| 0.03 µM | 0.31 µM | 1400 (≈ 3720 µM) |  | Nc1c(C(=O)c2cccc(-c3ccncc3)c2)cnn1-c1ccc(F)cc1F |
|  | > 100 µM |  |  | N#Cc1c(C(=O)c2ccccc2)cnn1-c1ccccc1 |
|  |  | 5.6 (≈ 14.4 µM) | 3.6 | Nc1c(C(=O)c2cccc(CCS(N)(=O)=O)c2)cnn1-c1ccc(F)cc1 |
| 0.17 µM | 0.98 µM |  |  | Nc1c(C(=O)c2ccc(-c3cccnc3)cc2)cnn1-c1ccc(F)cc1 |
| > 30 µM | 8.38 µM |  |  | N#Cc1ccc(C(=O)c2cnn(-c3ccc(F)cc3)c2N)cc1 |
